Data on 7 molecules can be found in patent publication US10744125B2, “Adenosine A3 receptor modulators” (Palobiofarma, S.L., priority 2017, dated 2020).

The target of one data set is human A3 receptors (Homo sapiens (Human), UniProt P0DMS8). Description: A3 adenosine receptor competition radioligand binding assay. The settings on record: membranes from human A3 receptors transfected to CHO cells, [3H]-NECA. As for the experimental part: (§1) Human membranes for recombinant adenosine receptors were purchased from Receptor Biology, Inc. (USA).
human A3 receptors, sequence (P0DMS8 whole entry): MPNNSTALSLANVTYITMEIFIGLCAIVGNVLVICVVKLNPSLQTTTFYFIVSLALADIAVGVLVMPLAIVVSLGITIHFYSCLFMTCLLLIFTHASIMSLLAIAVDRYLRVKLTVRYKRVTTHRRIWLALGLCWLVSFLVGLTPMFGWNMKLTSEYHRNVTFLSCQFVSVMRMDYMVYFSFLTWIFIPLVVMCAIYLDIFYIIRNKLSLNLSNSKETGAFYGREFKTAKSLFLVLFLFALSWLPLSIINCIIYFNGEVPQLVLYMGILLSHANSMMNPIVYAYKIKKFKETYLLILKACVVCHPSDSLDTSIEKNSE
A3 Adenosine Receptor Competition Radioligand Binding Assay
Competitive assays were carried out by incubation of membranes from human A3 receptors transfected to CHO cells, [^3H]-NECA, buffer (20 mM HEPES (pH 7.4), 100 mM NaCl, 10 mM MgCl2, 2 units/ml adenosine deaminase), and unlabelled ligand in a total volume of 0.2 ml for 60 min at 25° C. R-PIA was used to determine nonspecific binding. It was filtered over Schleicher & Schuell GF/52 (presoaked with 0.5% polyethyleneimine) in a Brandel cell harvester. The unbound radioligand was removed with 3×250 μl of 20 mM HEPES (pH 7.4), 100 mM NaCl, 10 mM MgCl2.

The next data set deals with human A2A receptors (Homo sapiens (Human), UniProt P29274). The data set is described as follows: A2A adenosine receptor competition radioligand binding assay. The settings on record: membranes from human A2A receptors transfected to HeLa cells, [3H]-ZM241385. How it is done:
as §1
A2A Adenosine Receptor Competition Radioligand Binding Assay
Competitive assays were carried out by incubation of membranes from human A2A receptors transfected to HeLa cells, [^3H]-ZM241385, buffer (Tris-HCl 50 mM (pH=7.4), 10 mM MgCl2, EDTA 1 mM and 2 units/ml adenosine deaminase), and unlabelled ligand in a total volume of 0.2 ml for 60 min at 25° C. NECA was used to determine nonspecific binding. It was filtered over Schleicher & Schuell GF/52 (presoaked with 0.5% polyethyleneimine) in a Brandel cell harvester. The unbound radioligand was removed with 3×250 μl of 20 mM Tris-HCl 50 mM (pH=7.4), 10 mM MgCl2, EDTA 1 mM.

Another data set deals with adenosine A2B receptor (Homo sapiens (Human), UniProt P29275). The data set is described as follows: A2B adenosine receptor competition radioligand binding assay. The settings on record: human recombinant source (HEK-293 cells), [3H]DPCPX. How it is done:
A2B Adenosine Receptor Competition Radioligand Binding Assay
The binding assay for adenosine A2B receptor subtype was carried out on human recombinant source (HEK-293 cells) and [^3H]DPCPX as radioligand, according to assay disclosed by Fredholm et al. (International Union of Pharmacology. XXV. Nomenclature and classification of adenosine receptors, Pharmacol Rev. 2001 December; 53(4):527-52).

Another data set has as its target hA1 receptors (Homo sapiens (Human), UniProt P30542). Description: Adenosine A1 receptor subtype competition radioligand binding assay. The settings on record: hA1 receptors transfected to CHO cells, [3H]DPCPX. How it is done:
as §1
Adenosine A1 Receptor Subtype Competition Radioligand Binding Assay
Competition assays were carried out by incubation of human recombinant membranes of adenosine receptors (Receptor Biology, Inc.) from hA1 receptors transfected to CHO cells, [^3H] DPCPX as radioligand, buffer (HEPES 20 mM (pH=7.4), 10 mM MgCl2, 100 mM NaCl, 2 U/mL of deaminase adenosine and non-labelled ligand in a total volume of 0.2 mL for 90 min at 25° C. R-PIA was used to determinate non-specific binding. Filter over Schleicher & Schuell GF/52 (pre-soaked 0.5% polyethylenimine) in a Brandel cell harvester. Unbound radioligand was removed with HEPES 30 mM (3×250 μl), NaCl (100 mM) and MgCl2 (10 mM).

Data set [1] concerns rheumatoid arthritis (RA) patients. The settings on record: oral administration twice daily for 12 weeks; cited from earlier work.
In data set [2] the test system is experimental autoimmune uveitis. The settings on record: experimental autoimmune uveitis model; cited from earlier work.
The next data set concerns the target A3AR receptor (Homo sapiens (Human), UniProt P0DMS8). The settings on record: read-out: affinity on the A3AR receptor (IC50); cited from earlier work.

hA1 receptors, sequence (P30542 whole entry): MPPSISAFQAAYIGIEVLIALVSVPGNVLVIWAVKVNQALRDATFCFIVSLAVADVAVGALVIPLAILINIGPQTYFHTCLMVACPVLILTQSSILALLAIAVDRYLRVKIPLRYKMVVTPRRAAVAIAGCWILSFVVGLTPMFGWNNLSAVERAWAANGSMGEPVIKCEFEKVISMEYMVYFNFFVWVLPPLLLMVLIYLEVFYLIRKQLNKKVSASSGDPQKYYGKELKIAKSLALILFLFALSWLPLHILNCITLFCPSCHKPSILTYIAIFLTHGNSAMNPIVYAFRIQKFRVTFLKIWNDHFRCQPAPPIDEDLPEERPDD
human A2A receptors, sequence (P29274 whole entry): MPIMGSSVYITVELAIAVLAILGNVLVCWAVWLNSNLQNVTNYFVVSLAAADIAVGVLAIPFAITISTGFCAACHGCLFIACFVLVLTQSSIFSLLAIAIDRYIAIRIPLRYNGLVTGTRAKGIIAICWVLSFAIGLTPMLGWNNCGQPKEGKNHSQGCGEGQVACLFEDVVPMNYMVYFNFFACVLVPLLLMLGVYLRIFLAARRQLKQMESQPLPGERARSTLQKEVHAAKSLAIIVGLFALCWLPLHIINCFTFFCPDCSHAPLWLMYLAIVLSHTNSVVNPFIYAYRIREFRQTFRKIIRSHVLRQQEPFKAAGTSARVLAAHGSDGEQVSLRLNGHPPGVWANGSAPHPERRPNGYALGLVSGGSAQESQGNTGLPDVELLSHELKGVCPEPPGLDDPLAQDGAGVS
adenosine A2B receptor, sequence (P29275 whole entry): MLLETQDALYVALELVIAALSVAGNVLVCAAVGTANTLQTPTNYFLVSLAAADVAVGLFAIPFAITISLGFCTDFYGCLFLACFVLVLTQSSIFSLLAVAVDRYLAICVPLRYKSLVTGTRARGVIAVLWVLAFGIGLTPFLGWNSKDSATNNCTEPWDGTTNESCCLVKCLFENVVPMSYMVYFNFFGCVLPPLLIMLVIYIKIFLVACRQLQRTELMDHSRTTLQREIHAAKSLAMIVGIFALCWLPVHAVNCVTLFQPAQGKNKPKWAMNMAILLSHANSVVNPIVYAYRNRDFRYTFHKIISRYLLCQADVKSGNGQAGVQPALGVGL
A3AR receptor, sequence (P0DMS8 whole entry): as the sequence (P0DMS8 whole entry) above

Usually Ki stands for a dissociation constant, usually derived from enzyme kinetics or from competition with a known ligand. With `COc1cccc(-c2nc(NC(=O)c3ccc(N4CCC(C(=O)O)CC4)nc3)sc2C#N)c1` [Example 3, 1-(5-((5-cyano-4-(3-methoxyphenyl)thiazol-2-yl)carbamoyl)pyridin-2-yl) piperidine-4-carboxylic Acid], the Ki on human A3 receptors is 65.5 nM; at human A2A receptors, greater than 1000 nM; at adenosine A2B receptor, greater than 1000 nM; on hA1 receptors it was greater than 1000 nM.
For the molecule `N#Cc1sc(NC(=O)c2ccc(N3CCC(C(=O)O)CC3)nc2)nc1-c1cccc(F)c1` [Example 6, 1-(5-((5-cyano-4-(3-fluorophenyl)thiazol-2-yl)carbamoyl)pyridin-2-yl) piperidine-4-carboxylic Acid], the Ki was 50.3 nM at human A3 receptors, greater than 1000 nM at human A2A receptors, greater than 1000 nM on adenosine A2B receptor and greater than 1000 nM on hA1 receptors.
As for `N#Cc1sc(NC(=O)c2ccc(N3CCC(C(=O)O)CC3)nc2)nc1-c1ccccc1` [Example 1, 1-(5-(5-cyano-4-phenylthiazol-2-ylcarbamoyl)pyridin-2-yl) piperidine-4-carboxylic Acid], the Ki is 103 nM at human A3 receptors, greater than 1000 nM on human A2A receptors, greater than 500 nM at adenosine A2B receptor and greater than 500 nM at hA1 receptors.
`N#Cc1sc(NC(=O)c2ccc(N3CCC(C(=O)O)CC3)nc2)nc1-c1cccs1` [Example 14, 1-(5-(5-cyano-4-(thiophen-2-yl)thiazol-2-ylcarbamoyl)pyridin-2-yl) piperidine-4-carboxylic Acid]: the Ki on human A3 receptors is 29.2 nM; at human A2A receptors it was greater than 500 nM; on adenosine A2B receptor it was greater than 1000 nM; on hA1 receptors, greater than 500 nM.
`N#Cc1sc(NC(=O)c2ccc(N3CCC(C(=O)O)CC3)nc2)nc1-c1ccccc1F` [Example 5, 1-(5-((5-cyano-4-(2-fluorophenyl)thiazol-2-yl)carbamoyl)pyridin-2-yl) piperidine-4-carboxylic Acid]: the Ki is 26.3 nM at human A3 receptors, greater than 1000 nM on human A2A receptors, greater than 500 nM at adenosine A2B receptor and greater than 500 nM on hA1 receptors.
On to `CNC(=O)[C@H]1O[C@@H](n2cnc3c(NCc4cccc(I)c4)ncnc32)[C@H](O)[C@@H]1O` [IB-MECA, 1-deoxy-1-[6-[((3-iodophenyl)methyl)amino]-9H-purin-9-yl]-N-methyl-β-D-ribofuranuronamide], for which, in data set [1], the “effect on disease signs and symptoms” value was “able to mediate an improvement of disease signs and symptoms”; the safety and tolerability result is listed as “safe, well tolerated”. The “effect on manifestations of uveitis” value in data set [2] is “inhibited the clinical and pathological manifestations of uveitis”.
The term IC50 denotes the concentration that gives 50% inhibition. For `COc1cc(Nc2ncc(F)c(Nc3ccc4c(n3)N(COP(=O)(O)O)C(=O)C(C)(C)O4)n2)cc(OC)c1OC` [fostamatinib], the IC50 at A3AR receptor is 81 nM.
